In article PMC12610274, “Identification of Marrubiin as a Cathepsin C Inhibitor for Treating Rheumatoid Arthritis” (Molecules, 2025):

How the values were obtained:
Cat G [1] = experiment: Cat G activity in blood and bone marrow of mice; assay type: in vivo, C57BL/6 mice; details: 30 mg/kg daily gavage, 7 days
Experimental: A total of 25 C57BL/6 mice (6–8 weeks old, weighing approximately 20 g, with equal numbers of males and females) were randomly divided into five groups. Mice in the compound-treated groups were orally administered the compound once daily at doses of 0.3, 3, and 30 mg/kg for 7 consecutive days. […] Mice in the normal group were given an equal volume of normal saline at the same time points. The body weight, death rate, and behavior were observed and recorded daily for one week. After 7 days, bone marrow and blood samples were collected from the mice and lysed using 8% Triton X-100 buffer. The lysates were stored at −20 °C until testing. The activity assays for CTSC and NSPs were performed as described above. The mice were anesthetized and the tissues were taken for H&E staining.

Cat G [2] = biological target: T1, Cat G (Homo sapiens, UniProt P08311); experiment: Recombinant NSPs isolated enzyme assay, Cat G; assay type: biochemical; details: read-out: Cat G Enz (IC50: μM)
T1 construct: purchased MedChemExpress
Excerpt: The protocol for evaluating the inhibitory potency of compounds against other cathepsins referred to the CTSC activity assay. Recombinant human CTSB, CTSL, CTSS and CTSK for testing were also purchased from R&D Systems Biotechnology Company. Recombinant human Cat G, NE, and PR3 For testing were purchased from MedChemExpress. A multi-functional microplate reader was used to measure the absorption of Z-Leu-Arg-AMC at excitation/emission wavelengths of 380/460 nm to assess the activity changes of CTSB and CTSL, while the absorption of MCA-Arg-Pro-Lys-Pro-Val-Glu-NVAL-Trp-Arg-Lys(DNP)-NH2 at 320/405 nm was measured to evaluate the activity changes of CTSS and CTSK. Different assay buffers were prepared for diluting samples and measuring the activities of specific NSPs: a buffer containing 50 mM Tris and 750 mM NaCl (pH 7.4) was used for NE and PR3; a buffer containing 50 mM Tris, 750 mM NaCl, 5 mM EDTA (pH 7.4) was used for Cat G; and a buffer containing 25 mM MES, 50 mM NaCl, 5 mM DTT (pH 6.0) was used for CTSC. Synthetic substrates were employed to assess the activities of NSPs and CTSC: H-Gly-Arg-AMC for CTSC, N-MeSuc-Ala-Ala-Pro-Val-pNA for NE, aminobenzoyl-Val-Ala-Asp-Cys-Ala-Asp-Gln-ethylenediamine 2,4-dinitrophenyl for PR3, and N-Suc-Ala-Ala-Pro-Phe-pNA for Cat G. Each group of tests was independently repeated at least 3 times, and IC50 values were calculated using SPSS 10.0.

[3] = Cytotoxicity assay, RAW264.7 cell line; assay type: cell-based; details: mouse, RAW264.7 cells
Experimental: RAW264.7 cells and U937 cells in the logarithmic growth phase were counted and diluted, and the concentrations of the single-cell suspensions of the two types of cells were adjusted to 5 × 10^4 cells/mL and 3 × 10^4 cells/mL, respectively. After thorough mixing, the cells were seeded into a 96-well plate, with 100 μL of cell suspension added to each well. Prepare the working solution of test compounds using the corresponding medium as the solvent, with the concentration of working solution being 2 times the final test concentration (2.5 μM, 5 μM, 10 μM, 20 μM, and 40 μM). Twenty-four hours after cell seeding, the compound working solutions were added to the compound test wells, and the same volume of medium was added to the negative control wells, followed by continuous incubation for another 24 h. Only the wells with the same volume but without cells served as the blank control group. The CellTiter-Lumi™ luminescent cell viability assay kit (Beyotime Biotechnology, Shanghai, China, C0065XL) was used to detect cell viability according to the standard operating procedures. Each group of tests was independently repeated at least 3 times, and IC50 values were calculated using SPSS 10.0.

PR3 = experiment: Stability (protein level) of NSPs in U937 cells, Western blot, PR3; assay type: cell-based, human; details: U937, 10 μM
Experimental: The Western blot experiments in this study were performed as described below. Cells in the logarithmic growth phase were collected in appropriate numbers according to different experimental purposes. After being thoroughly washed with phosphate-buffered saline and centrifuged, the cell pellets were resuspended in phosphate-buffered saline to obtain single-cell suspensions. Cells were fully lysed using RIPA buffer (Beyotime, P0013B) supplemented with EDTA-free protease and phosphatase inhibitor (Abcam, ab201120). Total cellular protein solutions were obtained after centrifugation to remove cell debris. The isolated proteins were quantified using the BeyoBCA protein assay kit (Beyotime, P0399M) following the operational protocol. The quantified protein samples were thoroughly mixed with protein loading buffer, boiled on a dry bath for 5 min, and then cooled to room temperature for Western blot analysis. […] Finally, enhanced chemiluminescent horseradish peroxidase substrate (Tanon Science & Technology Co., Ltd., Shanghai, China, 180-506) was used to visualize protein bands on a ChemiDoc XRS system (Bio-Rad Laboratories, Inc., Hercules, CA, USA), and the protein bands were quantified using Image Lab analysis software (Version 6.1) (Bio-Rad). […]

T1 sequence (P08311 21-255): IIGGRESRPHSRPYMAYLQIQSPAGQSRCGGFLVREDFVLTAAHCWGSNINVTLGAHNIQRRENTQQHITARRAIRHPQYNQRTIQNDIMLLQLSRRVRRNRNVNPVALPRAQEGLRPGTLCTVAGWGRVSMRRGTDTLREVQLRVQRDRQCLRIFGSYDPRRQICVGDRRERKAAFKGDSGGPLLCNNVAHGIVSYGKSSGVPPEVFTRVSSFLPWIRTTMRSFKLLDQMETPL

C[C@@H]1C[C@H]2OC(=O)[C@@]3(C)CCC[C@@](C)([C@@H]23)[C@@]1(O)CCc1ccoc1 [Marrubiin, marrubiin]
remaining activity rate of Cat G (Cat G [1]; blood): ~35.5%
remaining activity rate of Cat G (Cat G [1]; bone marrow): ~40.2%
IC50 (Cat G [2]): > 10 µM
IC50 at 24 h [3]: > 10 µM
PR3 protein level, % of original level (PR3; 96 h): 28.2%
PR3 protein level, % of original level (PR3; 5 days): 15.8%
